Converted amounts (≈) assume the structure as drawn. Read-outs that look alike come from different tables or passages of the source. Where a SMILES comes first, the peptide text is derived from it.
Experiments:
[1] = system: E. faecalis PCM 2673 biofilm formation; format: cell-based, Enterococcus faecalis; conditions: 24 h
Experimental: (§1) The minimum inhibitory concentrations (MICs) of test compounds were assessed by broth microdilution method on 96-well plates, according to the guidelines of Clinical and Laboratory Standards Institute (CLSI). For this purpose, reference strains of bacteria: S. aureus ATCC 25923, E. faecalis PCM 2673, E. coli ATCC 25922, and P. aeruginosa ATCC 9027; and fungus: C. albicans ATCC 10231 were used (The Polish Collection of Microorganism, Polish Academy of Sciences, Wrocław, Poland). Bacteria at initial inoculums of 0.5 × 10^5 CFU/mL in Mueller Hinton Broth (MHB), and fungi at initial inoculums of 2 × 10^3 CFU/mL in RPMI-1640, were exposed to the compounds over the concentration range of 1–512 μg/mL. The polystyrene plates were incubated at 37 °C for 18 h with bacteria and for 24 h with C. albicans. The MIC was taken as the lowest concentration at which a noticeable growth of microorganisms was inhibited. Minimum biofilm eradication concentrations (MBECs) were determined using a previously described protocol. For this purpose, 96-well polystyrene flat-bottom plates and a resazurin (7-hydroxy-3H-phenoxazin-3-one 10-oxide) were used. In this assay, a specific feature of resazurin is utilized, which upon the contact with living cells is metabolized and reduced from the basic blue form to pink resorufin. Briefly, 24-h cultures of microorganisms were diluted 1,000-fold and 100 μL of that suspension was added into the test plates. After 24 h of incubation at 37 °C, the wells of the plates were rinsed three times with phosphate buffer saline (PBS) to remove non-adherent cells. Subsequently, 100 μL of test compounds in concentration range (diluted in appropriate media) were added to each well. After 24 h of incubation at 37 °C, 20 μL of the resazurin (4 mg/mL) was added. The MBEC was read after 1 h. Additionally, anti-adhesive properties of the compounds were also analyzed. The assay was conducted on 96-well polystyrene flat-bottom plates. The preparation of inoculums was followed by a 500-fold dilution of 24-h cultures of microorganisms. Briefly, to evaluate the effect of the peptides in preventing biofilm formation, 50 μL of compounds in concentration range, diluted in appropriate medium, were prepared. Subsequently, the 50 μL of the bacterial/fungal inoculums were added to reach the same microbial density as that in MBEC assay. After 24 h of incubation at 37 °C, the wells were rinsed three times with PBS and the fresh media with resazurin (0.6 mg/mL) were added. Then, after 1 h of incubation, the minimum biofilm inhibitory concentrations (MBIC) were read. MBECs as well as MBICs were determined as the lowest concentration at which the reduction of resazurin was lower or equal (10% ± 0.5%) as compared to positive (100%) and negative (0%) controls. All experiments were performed in triplicate.

[2] = system: E. faecalis PCM 2673 biofilm; format: cell-based, Enterococcus faecalis; conditions: 24 h
Experimental: as §1

E. faecalis PCM 2673 = format: cell-based, Enterococcus faecalis; conditions: PCM 2673, 18 h
Experimental: as §1

C. albicans ATCC 10231 = format: cell-based, Candida albicans; conditions: ATCC 10231, 24 h
Experimental: as §1

[3] = system: C. albicans ATCC 10231 biofilm; format: cell-based, Candida albicans; conditions: ATCC 10231, 24 h
Experimental: as §1

[4] = system: C. albicans ATCC 10231 biofilm formation; format: cell-based, Candida albicans; conditions: ATCC 10231, 24 h
Experimental: as §1

[5] = system: human red blood cells (RBCs); assay: Hemolysis assay; format: cell-based
Experimental: The hemolytic activity of the peptides was determined using fresh human red blood cells (RBCs) collected from a healthy human donor according to the procedure described in the literature. Fresh RBCs with EDTA as anticoagulant were rinsed three times with a PBS by centrifugation at 800×g for 10 min and resuspension in PBS. Serial dilution of the peptides in PBS (1–256 μg/mL) on 96-well polystyrene plates was prepared and the stock solution of RBCs was added up to a final volume of 100 μL with a 4% concentration of erythrocytes (v/v). The control wells for 0 and 100% hemolysis contained of RBCs suspended in PBS and 1% of Triton-X 100, respectively. Subsequently, the plates were incubated for 1 h at 37 °C and then centrifuged at 800×g for 10 min at 4 °C (Sorvall ST 16R Centrifuge, Thermo Scientific). After centrifugation, the supernatant was carefully […] to new microtiter plates and the release of hemoglobin was measured at 540 nm (Multiskan™ GO Microplate Spectrophotometer, Thermo Scientific). All experiments were conducted in triplicate.

[6] = system: P. aeruginosa ATCC 9027 biofilm; format: cell-based, Pseudomonas aeruginosa; conditions: ATCC 9027, 24 h
Experimental: as §1

[7] = system: P. aeruginosa ATCC 9027 biofilm formation; format: cell-based, Pseudomonas aeruginosa; conditions: ATCC 9027, 24 h
Experimental: as §1

P. aeruginosa ATCC 9027 = format: cell-based, Pseudomonas aeruginosa; conditions: ATCC 9027, 18 h
Experimental: as §1

[8] = system: S. aureus ATCC 25923 biofilm formation; format: cell-based, Staphylococcus aureus; conditions: ATCC 25923, 24 h
Experimental: as §1

S. aureus ATCC 25923 = format: cell-based, Staphylococcus aureus; conditions: ATCC 25923, 18 h
Experimental: as §1

[9] = system: S. aureus ATCC 25923 biofilm; format: cell-based, Staphylococcus aureus; conditions: ATCC 25923, 24 h
Experimental: as §1

in vitro = in vitro ADME; conditions: bovine, serum
Experimental: To assess serum stability, the peptides (0.5 mg) were dissolved in 4 mL of 25% (v/v) fetal bovine serum (FBS) in PBS and incubated at 37 °C. The aliquots of 100 μL of the test samples were transferred to 96-well polystyrene plates in triplicate for each time point. Samples were quenched at zero time (t0) and after 6 h of incubation at 37 °C by addition of 100 μL of ice-cold acetonitrile and stored at 4 °C for 10 min. Afterwards, the samples were centrifuged at 13,000×g for 20 min at 4 °C and diluted 1:1 with HPLC-grade water. All samples were analyzed using the Waters Alliance e2695 system with Waters Acquity QDa Detector (software–Empower®3). Analyses were conducted on an Agilent Zorbax SB-C18 RP-18 column (4.6 × 50 mm, 1.8-μm particle size, 80-Å pore size) using a linear 30–60% acetonitrile (B) gradient in deionized water (A) over 6 min at 25.0 ± 0.1 °C, at a flow rate of 0.5 mL/min and MS working in selected ion recording (SIR) mode (A—0.1% aqueous formic acid (FA) and B—0.1% FA in acetonitrile). The percentage of peptide remaining intact was calculated from peak areas of samples at t0 and after 6 h of incubation in serum (the % of remaining peptide = peak area after 6 h/peak area at t0). The mass-to-charge ratios selected for SIR mode were based on values obtained from full spectrum analysis of each peptide and are presented in Table 1.

[10] = system: E. coli ATCC 25922 biofilm formation; format: cell-based, Escherichia coli; conditions: ATCC 25922, 24 h
Experimental: as §1

[11] = system: E. coli ATCC 25922 biofilm; format: cell-based, Escherichia coli; conditions: ATCC 25922, 24 h
Experimental: as §1

E. coli ATCC 25922 = format: cell-based, Escherichia coli; conditions: ATCC 25922, 18 h
Experimental: as §1

MIC, E. faecalis PCM 2673 (E. faecalis PCM 2673) [mg/L] | MIC, C. albicans ATCC 10231 (C. albicans ATCC 10231) [mg/L] | MIC, P. aeruginosa ATCC 9027 (P. aeruginosa ATCC 9027) [mg/L] | MIC, S. aureus ATCC 25923 (S. aureus ATCC 25923) [mg/L] | SMILES | MBIC, E. faecalis PCM 2673 [1] [µg/mL] | MBEC, E. faecalis PCM 2673 [2] [µg/mL] | MBEC, C. albicans ATCC 10231 [3] [µg/mL] | MBIC, C. albicans ATCC 10231 [4] [µg/mL] | Percentage of hemolysis at 1 μg/mL ([5]; red cells of human, 1 h) [%] | Percentage of hemolysis at 2 μg/mL ([5]; red cells of human, 1 h) [%] | Percentage of hemolysis at 4 μg/mL ([5]; red cells of human, 1 h) [%] | Percentage of hemolysis at 8 μg/mL ([5]; red cells of human, 1 h) [%] | Percentage of hemolysis at 32 μg/mL ([5]; red cells of human, 1 h) [%] | Percentage of hemolysis at 64 μg/mL ([5]; red cells of human, 1 h) [%] | Percentage of hemolysis at 128 μg/mL ([5]; red cells of human, 1 h) [%] | Percentage of hemolysis at 256 μg/mL ([5]; red cells of human, 1 h) [%] | MBEC, P. aeruginosa ATCC 9027 [6] [µg/mL] | MBIC, P. aeruginosa ATCC 9027 [7] [µg/mL] | MBIC, S. aureus ATCC 25923 [8] [µg/mL] | MBEC, S. aureus ATCC 25923 [9] [µg/mL] | also measured
128 (≈ 85.7 µM) | 128 (≈ 85.7 µM) | 512 (≈ 343 µM) | 512 (≈ 343 µM) | CC[C@H](C)[C@H](NC(=O)[C@H](CCCCN)NC(=O)[C@H](CCCCN)NC(=O)[C@@H](NC(=O)[C@@H](NC(=O)[C@H](CC(=O)O)NC(=O)[C@H](Cc1ccccc1)NC(=O)[C@H](CC(C)C)NC(=O)[C@H](C)N)[C@@H](C)CC)[C@@H](C)CC)C(=O)N[C@@H](C)C(=O)N[C@@H](CCC(=O)O)C(=O)N[C@@H](CO)C(=O)N[C@@H](Cc1ccccc1)C(N)=O [Peptide G1A] (H-ALFDIIKKIAESF-NH2) | 256 | > 512 | > 512 | 4 | 0.0 | 0.0 | 0.0 | 0.0 | 0.0 | 0.0 | 0.3 | 4.2 | 512 | 256 | 512 | 512 | Percentage of hemolysis at 16 μg/mL ([5]; red cells of human, 1 h, 16): 0.0%; remaining at 6 h, 0.125 mg/mL (in vitro): 16%; MBIC, E. coli ATCC 25922 [10]: 128 µg/mL; MBEC, E. coli ATCC 25922 [11]: 256 µg/mL; MIC, E. coli ATCC 25922 (E. coli ATCC 25922): 128 mg/L (≈ 85.7 µM)
128 (≈ 89 µM) | 256 (≈ 178 µM) | 512 (≈ 356 µM) | > 512 | CC[C@H](C)[C@H](NC(=O)[C@H](C)NC(=O)[C@H](CC(=O)O)NC(=O)[C@H](Cc1ccccc1)NC(=O)[C@H](CC(C)C)NC(=O)CN)C(=O)N[C@@H](CCCCN)C(=O)N[C@@H](CCCCN)C(=O)N[C@H](C(=O)N[C@@H](C)C(=O)N[C@@H](CCC(=O)O)C(=O)N[C@@H](CO)C(=O)N[C@@H](Cc1ccccc1)C(N)=O)[C@@H](C)CC [Peptide I5A] (H-GLFDAIKKIAESF-NH2) | 512 | > 512 | 512 | 4 | 0.2 | 0.3 | 0.2 | 0.0 | 0.0 | 0.1 | 0.0 | 1.1 | > 512 | > 512 | > 512 | > 512 | Percentage of hemolysis at 16 μg/mL ([5]; red cells of human, 1 h, 16): 0.0%; remaining at 6 h, 0.125 mg/mL (in vitro): 71%; MBIC, E. coli ATCC 25922 [10]: 512 µg/mL; MBEC, E. coli ATCC 25922 [11]: 512 µg/mL; MIC, E. coli ATCC 25922 (E. coli ATCC 25922): 256 mg/L (≈ 178 µM)

SMILES | MIC, E. faecalis PCM 2673 (E. faecalis PCM 2673) [mg/L] | MIC, C. albicans ATCC 10231 (C. albicans ATCC 10231) [mg/L] | MIC, P. aeruginosa ATCC 9027 (P. aeruginosa ATCC 9027) [mg/L] | MIC, S. aureus ATCC 25923 (S. aureus ATCC 25923) [mg/L] | MBIC, E. faecalis PCM 2673 [1] [µg/mL] | MBEC, E. faecalis PCM 2673 [2] [µg/mL] | MBEC, C. albicans ATCC 10231 [3] [µg/mL] | MBIC, C. albicans ATCC 10231 [4] [µg/mL] | Percentage of hemolysis at 1 μg/mL ([5]; red cells of human, 1 h) [%] | Percentage of hemolysis at 2 μg/mL ([5]; red cells of human, 1 h) [%] | Percentage of hemolysis at 4 μg/mL ([5]; red cells of human, 1 h) [%] | Percentage of hemolysis at 8 μg/mL ([5]; red cells of human, 1 h) [%] | Percentage of hemolysis at 32 μg/mL ([5]; red cells of human, 1 h) [%] | Percentage of hemolysis at 64 μg/mL ([5]; red cells of human, 1 h) [%] | Percentage of hemolysis at 128 μg/mL ([5]; red cells of human, 1 h) [%] | Percentage of hemolysis at 256 μg/mL ([5]; red cells of human, 1 h) [%] | MBEC, P. aeruginosa ATCC 9027 [6] [µg/mL] | MBIC, P. aeruginosa ATCC 9027 [7] [µg/mL] | MBIC, S. aureus ATCC 25923 [8] [µg/mL] | MBEC, S. aureus ATCC 25923 [9] [µg/mL] | also measured
CC[C@H](C)[C@H](NC(=O)[C@H](CCCCN)NC(=O)[C@H](CCCCN)NC(=O)[C@@H](NC(=O)[C@@H](NC(=O)[C@H](CC(=O)O)NC(=O)[C@H](Cc1ccccc1)NC(=O)[C@H](CC(C)C)NC(=O)CN)[C@@H](C)CC)[C@@H](C)CC)C(=O)N[C@@H](C)C(=O)N[C@@H](CCC(=O)O)C(=O)N[C@@H](CO)C(=O)N[C@@H](C)C(N)=O [Peptide F13A] (H-GLFDIIKKIAESA-NH2) | 128 (≈ 91.2 µM) | 512 (≈ 365 µM) | > 512 | > 512 | >512 | > 512 | > 512 | 8 | 0.3 | 0.6 | 0.5 | 0.4 | 0.0 | 0.0 | 0.0 | 0.0 | > 512 | >512 | >512 | 128 | Percentage of hemolysis at 16 μg/mL [5]: 0,0%; Hemolysis over the whole concentration range ([5]; 1–256 μg/mL, 4% human RBCs in PBS, 1 h, 37 °C): did not cause the lysis of RBCs; remaining at 6 h, 0.125 mg/mL (in vitro): 54%; MBIC, E. coli ATCC 25922 [10]: >512 µg/mL; MBEC, E. coli ATCC 25922 [11]: 512 µg/mL; MIC, E. coli ATCC 25922 (E. coli ATCC 25922): 128 mg/L (≈ 91.2 µM)

From paper PMC6695355, “Alanine Scanning Studies of the Antimicrobial Peptide Aurein 1.2” (Probiotics and Antimicrobial Proteins, 2018)
